Legend:
Assay in all cases: Post-emergence test experiment (greenhouse pot, spray at 2-3 leaf stage)
Assay type in all cases: in vivo
Settings in all cases: 1000 g/ha; post-emergence spray at 2-3 leaf stage; assessed after 3 weeks; fresh weight inhibition rate
Abutilon theophrasti = system: Abutilon theophrasti
How it was run: (§1)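 Activity graded levels 0-5 by fresh-weight inhibition (level 5 above 85%, level 0 below 5%), assessed 3 weeks after treatment. Plants grown in greenhouse pots were sprayed post-emergence at 2-3 leaves using acetone/tween-80 solutions with methyl oleate synergist (1.5 L/ha).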

Digitaria sanguinalis = system: Digitaria sanguinalis
How it was run: as §1

Echinochloa crusgalli = system: Echinochloa crusgalli
How it was run: as §1

Galium spurium = system: Galium spurium
How it was run: as §1

Monochoria vaginalis = system: Monochoria vaginalis
How it was run: as §1

Structure (SMILES): CC(Oc1nc(F)c(Cl)c(N)c1Cl)C(=O)SCc1ccccc1F (stereo not shown) [Compound 221]
- Activity level (growth inhibition rate) Abutilon theophrasti (Abutilon theophrasti): 5 (Level 5: the growth inhibition rate is greater than 85%)
- Activity level (growth inhibition rate) Digitaria sanguinalis (Digitaria sanguinalis): 5 (Level 5: the growth inhibition rate is greater than 85%)
- Activity level (growth inhibition rate) Echinochloa crusgalli (Echinochloa crusgalli): 5 (Level 5: the growth inhibition rate is greater than 85%)
- Activity level (growth inhibition rate) Galium spurium (Galium spurium): 5 (Level 5: the growth inhibition rate is greater than 85%)
- Activity level (growth inhibition rate) Monochoria Vaginalis (Monochoria vaginalis): 5 (Level 5: the growth inhibition rate is greater than 85%)

Structure (SMILES): CC(Oc1nc(F)c(Cl)c(N)c1Cl)C(=O)OCCc1cnsc1 (stereo not shown) [Compound 162]
- Activity level (growth inhibition rate) Abutilon theophrasti (Abutilon theophrasti): 5 (Level 5: the growth inhibition rate is greater than 85%)
- Activity level (growth inhibition rate) Digitaria sanguinalis (Digitaria sanguinalis): 5 (Level 5: the growth inhibition rate is greater than 85%)
- Activity level (growth inhibition rate) Echinochloa crusgalli (Echinochloa crusgalli): 5 (Level 5: the growth inhibition rate is greater than 85%)
- Activity level (growth inhibition rate) Galium spurium (Galium spurium): 5 (Level 5: the growth inhibition rate is greater than 85%)
- Activity level (growth inhibition rate) Monochoria Vaginalis (Monochoria vaginalis): 5 (Level 5: the growth inhibition rate is greater than 85%)

Structure (SMILES): CC(Oc1nc(F)c(Cl)c(N)c1Cl)C(=O)SCc1cccc(F)c1 (stereo not shown) [Compound 222]
- Activity level (growth inhibition rate) Abutilon theophrasti (Abutilon theophrasti): 5 (Level 5: the growth inhibition rate is greater than 85%)
- Activity level (growth inhibition rate) Digitaria sanguinalis (Digitaria sanguinalis): 5 (Level 5: the growth inhibition rate is greater than 85%)
- Activity level (growth inhibition rate) Echinochloa crusgalli (Echinochloa crusgalli): 5 (Level 5: the growth inhibition rate is greater than 85%)
- Activity level (growth inhibition rate) Galium spurium (Galium spurium): 5 (Level 5: the growth inhibition rate is greater than 85%)
- Activity level (growth inhibition rate) Monochoria Vaginalis (Monochoria vaginalis): 5 (Level 5: the growth inhibition rate is greater than 85%)

Structure (SMILES): CC(Oc1nc(F)c(Cl)c(N)c1Cl)C(=O)OCc1cncn1C (stereo not shown) [Compound 131]
- Activity level (growth inhibition rate) Abutilon theophrasti (Abutilon theophrasti): 5 (Level 5: the growth inhibition rate is greater than 85%)
- Activity level (growth inhibition rate) Digitaria sanguinalis (Digitaria sanguinalis): 5 (Level 5: the growth inhibition rate is greater than 85%)
- Activity level (growth inhibition rate) Echinochloa crusgalli (Echinochloa crusgalli): 5 (Level 5: the growth inhibition rate is greater than 85%)
- Activity level (growth inhibition rate) Galium spurium (Galium spurium): 5 (Level 5: the growth inhibition rate is greater than 85%)
- Activity level (growth inhibition rate) Monochoria Vaginalis (Monochoria vaginalis): 5 (Level 5: the growth inhibition rate is greater than 85%)

Structure (SMILES): CC(Oc1nc(F)c(Cl)c(N)c1Cl)C(=O)OCc1cccc(I)c1 (stereo not shown) [Compound 78]
- Activity level (growth inhibition rate) Abutilon theophrasti (Abutilon theophrasti): 5 (Level 5: the growth inhibition rate is greater than 85%)
- Activity level (growth inhibition rate) Digitaria sanguinalis (Digitaria sanguinalis): 5 (Level 5: the growth inhibition rate is greater than 85%)
- Activity level (growth inhibition rate) Echinochloa crusgalli (Echinochloa crusgalli): 5 (Level 5: the growth inhibition rate is greater than 85%)
- Activity level (growth inhibition rate) Galium spurium (Galium spurium): 5 (Level 5: the growth inhibition rate is greater than 85%)
- Activity level (growth inhibition rate) Monochoria Vaginalis (Monochoria vaginalis): 5 (Level 5: the growth inhibition rate is greater than 85%)

Structure (SMILES): CC(Oc1ncc(I)c(N)c1I)C(=O)OCc1ccccc1 (stereo not shown) [Compound 13]
- Activity level (growth inhibition rate) Abutilon theophrasti (Abutilon theophrasti): 5 (Level 5: the growth inhibition rate is greater than 85%)
- Activity level (growth inhibition rate) Digitaria sanguinalis (Digitaria sanguinalis): 5 (Level 5: the growth inhibition rate is greater than 85%)
- Activity level (growth inhibition rate) Echinochloa crusgalli (Echinochloa crusgalli): 5 (Level 5: the growth inhibition rate is greater than 85%)
- Activity level (growth inhibition rate) Galium spurium (Galium spurium): 5 (Level 5: the growth inhibition rate is greater than 85%)
- Activity level (growth inhibition rate) Monochoria Vaginalis (Monochoria vaginalis): 5 (Level 5: the growth inhibition rate is greater than 85%)

Structure (SMILES): CC(Oc1nc(F)c(Cl)c(N)c1Cl)C(=O)SCc1ccc(Cl)cc1 (stereo not shown) [Compound 228]
- Activity level (growth inhibition rate) Abutilon theophrasti (Abutilon theophrasti): 5 (Level 5: the growth inhibition rate is greater than 85%)
- Activity level (growth inhibition rate) Digitaria sanguinalis (Digitaria sanguinalis): 5 (Level 5: the growth inhibition rate is greater than 85%)
- Activity level (growth inhibition rate) Echinochloa crusgalli (Echinochloa crusgalli): 5 (Level 5: the growth inhibition rate is greater than 85%)
- Activity level (growth inhibition rate) Galium spurium (Galium spurium): 5 (Level 5: the growth inhibition rate is greater than 85%)
- Activity level (growth inhibition rate) Monochoria Vaginalis (Monochoria vaginalis): 5 (Level 5: the growth inhibition rate is greater than 85%)

Structure (SMILES): CC(Oc1nc(F)c(Cl)c(N)c1Cl)C(=O)OCc1cccc(F)c1 (stereo not shown) [Compound 198]
- Activity level (growth inhibition rate) Abutilon theophrasti (Abutilon theophrasti): 5 (Level 5: the growth inhibition rate is greater than 85%)
- Activity level (growth inhibition rate) Digitaria sanguinalis (Digitaria sanguinalis): 5 (Level 5: the growth inhibition rate is greater than 85%)
- Activity level (growth inhibition rate) Echinochloa crusgalli (Echinochloa crusgalli): 5 (Level 5: the growth inhibition rate is greater than 85%)
- Activity level (growth inhibition rate) Galium spurium (Galium spurium): 5 (Level 5: the growth inhibition rate is greater than 85%)
- Activity level (growth inhibition rate) Monochoria Vaginalis (Monochoria vaginalis): 5 (Level 5: the growth inhibition rate is greater than 85%)

Structure (SMILES): CCCc1c(OC(C)C(=O)OCc2ccccc2)nc(Br)c(Cl)c1N (stereo not shown) [Compound 18]
- Activity level (growth inhibition rate) Abutilon theophrasti (Abutilon theophrasti): 5 (Level 5: the growth inhibition rate is greater than 85%)
- Activity level (growth inhibition rate) Digitaria sanguinalis (Digitaria sanguinalis): 5 (Level 5: the growth inhibition rate is greater than 85%)
- Activity level (growth inhibition rate) Echinochloa crusgalli (Echinochloa crusgalli): 5 (Level 5: the growth inhibition rate is greater than 85%)
- Activity level (growth inhibition rate) Galium spurium (Galium spurium): 5 (Level 5: the growth inhibition rate is greater than 85%)
- Activity level (growth inhibition rate) Monochoria Vaginalis (Monochoria vaginalis): 5 (Level 5: the growth inhibition rate is greater than 85%)

Structure (SMILES): CC(Oc1nc(F)c(Cl)c(N)c1Cl)C(=O)OCc1cccc2ccccc12 (stereo not shown) [Compound 211]
- Activity level (growth inhibition rate) Abutilon theophrasti (Abutilon theophrasti): 5 (Level 5: the growth inhibition rate is greater than 85%)
- Activity level (growth inhibition rate) Digitaria sanguinalis (Digitaria sanguinalis): 5 (Level 5: the growth inhibition rate is greater than 85%)
- Activity level (growth inhibition rate) Echinochloa crusgalli (Echinochloa crusgalli): 5 (Level 5: the growth inhibition rate is greater than 85%)
- Activity level (growth inhibition rate) Galium spurium (Galium spurium): 5 (Level 5: the growth inhibition rate is greater than 85%)
- Activity level (growth inhibition rate) Monochoria Vaginalis (Monochoria vaginalis): 5 (Level 5: the growth inhibition rate is greater than 85%)

Structure (SMILES): Cc1cccc(COC(=O)C(C)Oc2nc(F)c(Cl)c(N)c2Cl)c1 (stereo not shown) [Compound 196]
- Activity level (growth inhibition rate) Abutilon theophrasti (Abutilon theophrasti): 5 (Level 5: the growth inhibition rate is greater than 85%)
- Activity level (growth inhibition rate) Digitaria sanguinalis (Digitaria sanguinalis): 5 (Level 5: the growth inhibition rate is greater than 85%)
- Activity level (growth inhibition rate) Echinochloa crusgalli (Echinochloa crusgalli): 5 (Level 5: the growth inhibition rate is greater than 85%)
- Activity level (growth inhibition rate) Galium spurium (Galium spurium): 5 (Level 5: the growth inhibition rate is greater than 85%)
- Activity level (growth inhibition rate) Monochoria Vaginalis (Monochoria vaginalis): 5 (Level 5: the growth inhibition rate is greater than 85%)

Structure (SMILES): CC(Oc1ncc(C(C)C)c(N)c1Cl)C(=O)OCc1ccccc1 (stereo not shown) [Compound 9]
- Activity level (growth inhibition rate) Abutilon theophrasti (Abutilon theophrasti): 5 (Level 5: the growth inhibition rate is greater than 85%)
- Activity level (growth inhibition rate) Digitaria sanguinalis (Digitaria sanguinalis): 5 (Level 5: the growth inhibition rate is greater than 85%)
- Activity level (growth inhibition rate) Echinochloa crusgalli (Echinochloa crusgalli): 5 (Level 5: the growth inhibition rate is greater than 85%)
- Activity level (growth inhibition rate) Galium spurium (Galium spurium): 5 (Level 5: the growth inhibition rate is greater than 85%)
- Activity level (growth inhibition rate) Monochoria Vaginalis (Monochoria vaginalis): 5 (Level 5: the growth inhibition rate is greater than 85%)

Structure (SMILES): CC(Oc1nc(F)c(Cl)c(NCc2ccc(C(F)(F)F)o2)c1Cl)C(=O)SCc1ccccc1 (stereo not shown) [Compound 239]
- Activity level (growth inhibition rate) Abutilon theophrasti (Abutilon theophrasti): 5 (Level 5: the growth inhibition rate is greater than 85%)
- Activity level (growth inhibition rate) Digitaria sanguinalis (Digitaria sanguinalis): 5 (Level 5: the growth inhibition rate is greater than 85%)
- Activity level (growth inhibition rate) Echinochloa crusgalli (Echinochloa crusgalli): 5 (Level 5: the growth inhibition rate is greater than 85%)
- Activity level (growth inhibition rate) Galium spurium (Galium spurium): 5 (Level 5: the growth inhibition rate is greater than 85%)
- Activity level (growth inhibition rate) Monochoria Vaginalis (Monochoria vaginalis): 5 (Level 5: the growth inhibition rate is greater than 85%)

Structure (SMILES): CC(Oc1nc(F)c(Cl)c(N)c1Cl)C(=O)OCc1ncncn1 (stereo not shown) [Compound 126]
- Activity level (growth inhibition rate) Abutilon theophrasti (Abutilon theophrasti): 5 (Level 5: the growth inhibition rate is greater than 85%)
- Activity level (growth inhibition rate) Digitaria sanguinalis (Digitaria sanguinalis): 5 (Level 5: the growth inhibition rate is greater than 85%)
- Activity level (growth inhibition rate) Echinochloa crusgalli (Echinochloa crusgalli): 5 (Level 5: the growth inhibition rate is greater than 85%)
- Activity level (growth inhibition rate) Galium spurium (Galium spurium): 5 (Level 5: the growth inhibition rate is greater than 85%)
- Activity level (growth inhibition rate) Monochoria Vaginalis (Monochoria vaginalis): 5 (Level 5: the growth inhibition rate is greater than 85%)

Structure (SMILES): CC(Oc1nc(F)c(Cl)c(N)c1Cl)C(=O)OCc1nncs1 (stereo not shown) [Compound 164]
- Activity level (growth inhibition rate) Abutilon theophrasti (Abutilon theophrasti): 5 (Level 5: the growth inhibition rate is greater than 85%)
- Activity level (growth inhibition rate) Digitaria sanguinalis (Digitaria sanguinalis): 5 (Level 5: the growth inhibition rate is greater than 85%)
- Activity level (growth inhibition rate) Echinochloa crusgalli (Echinochloa crusgalli): 5 (Level 5: the growth inhibition rate is greater than 85%)
- Activity level (growth inhibition rate) Galium spurium (Galium spurium): 5 (Level 5: the growth inhibition rate is greater than 85%)
- Activity level (growth inhibition rate) Monochoria Vaginalis (Monochoria vaginalis): 5 (Level 5: the growth inhibition rate is greater than 85%)

Structure (SMILES): CC(Oc1nc(F)c(Cl)c(N)c1Cl)C(=O)OCc1nccs1 (stereo not shown) [Compound 163]
- Activity level (growth inhibition rate) Abutilon theophrasti (Abutilon theophrasti): 5 (Level 5: the growth inhibition rate is greater than 85%)
- Activity level (growth inhibition rate) Digitaria sanguinalis (Digitaria sanguinalis): 5 (Level 5: the growth inhibition rate is greater than 85%)
- Activity level (growth inhibition rate) Echinochloa crusgalli (Echinochloa crusgalli): 5 (Level 5: the growth inhibition rate is greater than 85%)
- Activity level (growth inhibition rate) Galium spurium (Galium spurium): 5 (Level 5: the growth inhibition rate is greater than 85%)
- Activity level (growth inhibition rate) Monochoria Vaginalis (Monochoria vaginalis): 5 (Level 5: the growth inhibition rate is greater than 85%)

Structure (SMILES): CC(Oc1nc(F)c(Cl)c(N)c1Cl)C(=O)SCc1cccc(C(C)C)c1 (stereo not shown) [Compound 71]
- Activity level (growth inhibition rate) Abutilon theophrasti (Abutilon theophrasti): 5 (Level 5: the growth inhibition rate is greater than 85%)
- Activity level (growth inhibition rate) Digitaria sanguinalis (Digitaria sanguinalis): 5 (Level 5: the growth inhibition rate is greater than 85%)
- Activity level (growth inhibition rate) Echinochloa crusgalli (Echinochloa crusgalli): 5 (Level 5: the growth inhibition rate is greater than 85%)
- Activity level (growth inhibition rate) Galium spurium (Galium spurium): 5 (Level 5: the growth inhibition rate is greater than 85%)
- Activity level (growth inhibition rate) Monochoria Vaginalis (Monochoria vaginalis): 5 (Level 5: the growth inhibition rate is greater than 85%)

— US12049450B2, “Pyridyloxy-carboxylate derivative and preparation method therefor, herbicidal composition, and use” (Qingdao Kingagroot Chemical Compound Co., Ltd., priority 2018, dated 2024)
